Measurements from US10195196B2, “1,4-disubstituted pyridazine analogs there of and methods for treating SMN-deficiency-related conditions” (NOVARTIS AG, priority 2012, dated 2019).

Test system: SMN protein
Experiment: cellular SMN ELISA (SMN protein elevation)
Type: cell-based
Settings: myoblast cell line from SMNdelta7 mouse model, 24 hours treatment; for SMN activity Fold: fold activation over DMSO control
How it was run: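 Readout is fold SMN elevation versus DMSO plus EC50, measured by anti-SMN capture ELISA with 450 nm absorbance. Lysates came from a myoblast line of the SMNdelta7 mouse model after 24 h compound exposure, with dose ranges of 20 nM–10 μM (condition 1) or 100 pM–10 μM (condition 2).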

[1] = ELISA condition 1: compound concentration range 20 nM-10 uM
[2] = ELISA condition 2: compound concentration 100 pM-10 uM

| Structure (SMILES) | EC50 [1] [nM] | SMN activity Fold [1] [Fold] | EC50 [2] [nM] | SMN activity Fold [2] [Fold] |
| --- | --- | --- | --- | --- |
| C[C@@H]1C[C@H](Oc2ccc(-c3ccc(-n4cccn4)cc3O)nn2)C[C@H](C)N1 [Example 17-2, 2-(6-(((2S,4R,6R)-2,6-Dimethylpiperidin-4-yl)oxy)pyridazin-3-yl)-5-(1H-pyrazol-1-yl)phenol] | 70 | 2.62 | – | – |
| CC1CC(Oc2ccc(-c3ccc(-n4cccn4)cc3O)nn2)CCN1 (single isomer, unassigned) [Example 17-7] | – | – | 617 | 2.50 |
| CN(c1ccc(-c2c(O)cc(-c3ccc(=O)n(C)c3)cc2F)nn1)C1CC(C)(C)NC(C)(C)C1 [Example 40-4, 5-(3-fluoro-5-hydroxy-4-(6-(methyl(2,2,6,6-tetramethylpiperidin-4-yl)amino)pyridazin-3-yl)phenyl)-1-methylpyridin-2(1H)-one] | – | – | 15 | 2.14 |
| CN(c1ccc(-c2ccc(-n3cccc3)nc2)nn1)C1CC(C)(C)NC(C)(C)C1 [Example 1-18, methyl-[6-(6-pyrrol-1-yl-pyridin-3-yl)-pyridazin-3-yl]-(2,2,6,6-tetramethyl-piperidin-4-yl)-amine] | 1130 | 2.69 | – | – |
| Oc1cc(-n2cccn2)ccc1-c1ccc(C2=CCNCC2)nn1 [Example 19-1, 5-pyrazol-1-yl-2-[6-(1,2,3,6-tetrahydro-pyridin-4-yl)-pyridazin-3-yl]-phenol] | – | – | 477 | 2.77 |
| CN(c1ccc(-c2ccc(-c3ccc(=O)n(C)c3)cc2O)nn1)C1CC(C)(C)NC(C)(C)C1 [Example 41-6, 5-(3-hydroxy-4-(6-(methyl(2,2,6,6-tetramethylpiperidin-4-yl)amino)pyridazin-3-yl)phenyl)-1-methylpyridin-2(1H)-one] | – | – | 10 | 2.67 |
| CN1CCC2(CCN(c3ccc(-c4ccc(-n5cccn5)cc4O)nn3)C2)C1 (centres unmarked) [Example 18-5, 2-[6-(7-methyl-2,7-diaza-spiro[4.4]non-2-yl)-pyridazin-3-yl]-5-pyrazol-1-yl-phenol] | – | – | 151 | 2.66 |
| OCCN1CCC2(CCN(c3ccc(-c4ccc(-n5cccn5)cc4O)nn3)C2)C1 (centres unmarked) [Example 18-16, 2-(6-(7-(2-hydroxyethyl)-2,7-diazaspiro[4.4]-nonan-2-yl)pyridazin-3-yl)-5-(1H-pyrazol-1-yl)phenol] | – | – | 227 | 3.25 |
| CC1(C)CC(Oc2ccc(-c3cc4ccc(O)cc4cc3O)nn2)CC(C)(C)N1 [Example 20-1, 3-(6-((2,2,6,6-tetramethylpiperidin-4-yl)oxy)pyridazin-3-yl)naphthalene-2,7-diol] | – | – | 18 | 2.75 |
| CN(c1ccc(-c2cc(-c3c[nH]cn3)c(F)cc2O)nn1)C1CC(C)(C)NC(C)(C)C1 [Example 34-3, 5-fluoro-4-(1H-imidazol-4-yl)-2-(6-(methyl(2,2,6,6-tetramethylpiperidin-4-yl)amino)pyridazin-3-yl)phenol] | – | – | 27 | 2.56 |
| CN(c1ccc(-c2c(O)cc(-c3cn[nH]c3)cc2O)nn1)C1CC(C)(C)NC(C)(C)C1 [Example 25-1, 2-(6-(methyl(2,2,6,6-tetramethylpiperidin-4-yl)amino)pyridazin-3-yl)-5-(1H-pyrazol-4-yl)benzene-1,3-diol] | – | – | 84 | 2.58 |
| CN(C)c1ccc(-c2ccc(-c3ccc(N(C)C4CC(C)(C)NC(C)(C)C4)nn3)c(O)c2)cn1 [Example 41-10, 5-(6-(dimethylamino)pyridin-3-yl)-2-(6-(methyl(2,2,6,6-tetramethylpiperidin-4-yl)amino)pyridazin-3-yl)phenol] | – | – | 59 | 2.80 |
| CN(c1ccc(-c2cc(-c3cc4ccccc4[nH]3)ccc2O)nn1)C1CC(C)(C)NC(C)(C)C1 [Example 32-4, 4-(1H-indol-2-yl)-2-(6-(methyl(2,2,6,6-tetramethylpiperidin-4-yl)amino)pyridazin-3-yl)phenol] | – | – | 168 | 2.09 |
